From US10639284B2, “Immunomodulator compounds” (CHEMOCENTRYX, INC., priority 2016, dated 2020)

target: human PD-L1 / Human PD-1 (Homo sapiens (Human), UniProt Q9NZQ7); experiment: Enzyme-Linked Immunosorbent Assay (ELISA), PD-1/PD-L1 binding; conditions: Table 2; plate-coated human PD-L1, biotinylated human PD-1; read-out: ELISA IC50
Procedure, shortened: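 Human PD-L1 coated at 1 μg/mL overnight at 4° C; samples diluted 1:5 and incubated with human PD-1 and biotin (0.3 μg/mL) for 1 h at 37° C. Bound PD-1 detected with streptavidin-HRP and TMB (20 min, 37° C), acid-stopped, absorbance at 450 nm.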

Sequence of human PD-L1 / Human PD-1 (Q9NZQ7 19-239): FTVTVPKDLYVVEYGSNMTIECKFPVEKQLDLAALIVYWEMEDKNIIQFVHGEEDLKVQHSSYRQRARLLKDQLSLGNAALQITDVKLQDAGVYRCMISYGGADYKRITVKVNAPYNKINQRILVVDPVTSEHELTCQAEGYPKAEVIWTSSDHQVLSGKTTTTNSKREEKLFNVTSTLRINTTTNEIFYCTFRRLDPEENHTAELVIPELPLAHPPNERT

Row | IC50 [nM] | SMILES
1 | < 100 | COc1cccc(-c2cccc3c2CC[C@@H]3Oc2cc(OCc3cncc(C#N)c3)c(CN[C@H](C(=O)O)[C@@H](C)O)cc2Cl)c1F [Example 2.106]
2 | 500 to 20000 | CC(C)(CNCc1cc(Cl)c(O[C@H]2CCc3c(-c4ccccc4)cccc32)cc1OCc1cncc(C#N)c1)C(=O)O [Example 1.013]
3 | < 100 | C[C@@H](O)[C@H](NCc1cc(Cl)c(O[C@@H]2c3cccc(-c4ccccc4F)c3C[C@H]2F)cc1OCc1cncc(C#N)c1)C(=O)O [Example 2.146]
4 | < 100 | Cc1cccc(-c2cccc3c2CC[C@@H]3Oc2cc(OCc3cncc(C#N)c3)c(CN[C@@H](CO)C(=O)O)cc2Cl)c1F [Example 2.046]
5 | 500 to 20000 | CN(C)c1cccc(-c2cccc3c2CC[C@@H]3Oc2cc(OCc3cncc(C#N)c3)c(CN[C@@H](CO)C(=O)O)cc2Cl)c1 [Example 2.027]
6 | 500 to 20000 | OC1CCN(Cc2cc(Cl)c(O[C@H]3CCc4c(-c5ccccc5F)cccc43)cc2OCc2ccc(C(F)(F)F)nc2)CC1 [Example 2.095]
7 | < 100 | COC(=O)[C@H](CO)NCc1cc(Cl)c(O[C@H]2CCc3c(-c4ccccc4F)cccc32)cc1OCc1cncc(C#N)c1 [Example 2.140]
8 | 100 to 500 | COc1cccc(-c2cccc3c2CC[C@@H]3Oc2cc(OCc3cncc(C#N)c3)c(CN3CCC(C(N)=O)CC3)cc2Cl)c1Cl [Example 2.083]
9 | 100 to 500 | COc1cccc(-c2cccc3c2CC[C@@H]3Oc2cc(OCc3cncc(C#N)c3)c(CN3CCC[C@@H](O)C3)cc2Cl)c1F [Example 2.055]
10 | 100 to 500 | N#CCCCCOc1cc(O[C@H]2CCc3c(-c4ccccc4F)cccc32)c(Cl)cc1CN1CCC(O)CC1 [Example 2.090]
11 | 500 to 20000 | N#Cc1cncc(COc2cc(O[C@H]3CCc4c(-c5ccccc5F)cccc43)c(Cl)cc2CN2CC[C@H](O)[C@H](F)C2)c1 [Example 2.113]
12 | 500 to 20000 | COc1cc(O[C@H]2CCc3c(-c4ccc5c(c4)OCCO5)cccc32)c(Cl)cc1CN1CC(O)C1 [Example 2.042]
13 | 500 to 20000 | CC(C)c1cccc(-c2cccc3c2CC[C@@H]3Oc2cc(OCc3cncc(C#N)c3)c(CN[C@@H](CO)C(=O)O)cc2Cl)c1 [Example 2.033]
14 | 500 to 20000 | OC1CCN(Cc2cc(Cl)c(O[C@H]3CCc4c(-c5ccccc5F)cccc43)cc2OCc2ccc(C(F)(F)F)nc2)CC1 [Example 2.096]
15 | 100 to 500 | N#Cc1cncc(COc2cc(O[C@H]3CCc4c(-c5ccccc5F)cccc43)c(Cl)cc2CNCC(N)=O)c1 [Example 2.171]
16 | 100 to 500 | N#Cc1cncc(COc2cc(O[C@H]3CCc4c(-c5ccccc5)cccc43)c(Cl)cc2CN2CC(O)C2)c1 [Example 2.001]

same assay, conditions: Table 3; plate-coated human PD-L1, biotinylated human PD-1; read-out: ELISA IC50

Row | IC50 [nM] | SMILES
17 | 100 to 500 | N#Cc1cncc(COc2cc(O[C@H]3CCc4c(-c5ccccc5F)cccc43)c(Cl)cc2CN[C@@H](CC(=O)O)C(=O)O)c1 [Example 3.105]
18 | < 100 | O=C(O)[C@H](CO)NCc1cc(Cl)c(O[C@H]2CCc3c(-c4ccc5c(c4F)OCCO5)cccc32)cc1OCc1cncc(Cl)c1 [Example 3.027]
19 | 100 to 500 | NCCCC[C@H](NCc1cc(Cl)c(O[C@H]2CCc3c(-c4ccccc4F)cccc32)cc1OCc1cncc(C(=O)O)c1)C(=O)O [Example 3.023]
20 | < 100 | N#Cc1cncc(COc2cc(O[C@H]3CCc4c(-c5ccccc5F)cccc43)c(Cl)cc2CN2CC[C@@H](C(=O)O)C2)c1 [Example 3.132]
21 | < 100 | N#Cc1cncc(COc2cc(O[C@H]3CCc4c(-c5ccccc5F)cccc43)c(Cl)cc2CNC(CO)(CO)CO)c1 [Example 3.130]
22 | < 100 | N#Cc1cncc(COc2cc(O[C@H]3CCc4c(-c5ccccc5F)cccc43)c(Cl)cc2CNC(CO)CO)c1 [Example 3.129]
23 | < 100 | N#Cc1cncc(COc2cc(O[C@H]3CCc4c(-c5ccccc5F)cccc43)c(Cl)cc2CN[C@H](CC(N)=O)C(=O)O)c1 [Example 3.104]
24 | 100 to 500 | O=C(O)c1cncc(COc2cc(O[C@H]3CCc4c(-c5ccc6c(c5F)OCCO6)cccc43)c(Cl)cc2CN[C@@H](CO)C(=O)O)c1 [Example 3.030]
